From ChEMBL document CHEMBL3217573, “Diacrylamides as selective G-quadruplex ligands in in vitro and in vivo assays” (Medchemcomm, 2011)
The source made the active and inactive calls. The rule behind the calls is not given here.

Columns and labels:
[1] = Displacement of thiazole orange from 22AG DNA (unknown origin) preincubated for 10 mins measured after 3 mins by fluorescence spectra analysis
[2] = Displacement of thiazole orange from ds26 DNA (unknown origin) preincubated for 10 mins measured after 3 mins by fluorescence spectra analysis
unidentified = test: Selectivity ratio of ligand concentration required to displace thiazole orange from 22AG DNA (unknown origin) to same extent as percentage displacement from ds26 DNA (unknown origin) at 2.5 uM of compound
MCF7 [3] = test: Cytotoxicity against human MCF7 cells assessed as reduction of cell viability at 2.5 uM after 24 hrs by MTT assay; assay type: functional
MCF7 [4] = test: Cytotoxicity against human MCF7 cells assessed as reduction of cell viability after 10 days by MTT assay relative to control; assay type: functional
MCF7 [5] = test: Cytotoxicity against human MCF7 cells assessed as reduction of cell viability after 10 days by MTT assay; assay type: functional, cell-based; details: MCF7, 240 h
Caco-2 = test: Induction of apoptosis in human Caco2 cells after 48 hrs by MTT assay; assay type: functional, cell-based
MCF7 [6] = test: Induction of apoptosis in human MCF7 cells after 48 hrs by MTT assay; assay type: functional, cell-based

CC(=O)CC(C)(C)NC(=O)/C=C/c1c2ccccc2c(/C=C/C(=O)NC(C)(C)CC(C)=O)c2ccccc12
Kd [1]: 0.07 µM | Kd [2]: 0.36 µM | Selectivity ratio (unidentified): 5.6

COc1ccc2cc3[n+](cc2c1OC)CCc1cc2c(cc1-3)OCO2 [BERBERINE]
Kd [1]: 216 µM | Kd [2]: 1.77 µM | Selectivity ratio (unidentified): 0.1

O=C(/C=C/c1c2ccccc2c(/C=C/C(=O)NC(CO)(CO)CO)c2ccccc12)NC(CO)(CO)CO
Kd [2]: 22.6 µM | Selectivity ratio (unidentified): 0

O=C(/C=C/c1c2ccccc2c(Br)c2ccccc12)N1CCOCC1
Kd [1]: 0.17 µM | Kd [2]: 1.76 µM | Selectivity ratio (unidentified): 5

O=C(/C=C/c1c2ccccc2c(/C=C/C(=O)N2CCOCC2)c2ccccc12)N1CCOCC1
Activity (MCF7 [3]): 40% | Kd [1]: 20.2 µM | Kd [2]: 0.29 µM | Selectivity ratio (unidentified): 0

NC(=O)/C=C/c1c2ccccc2c(/C=C/C(N)=O)c2ccccc12
Activity (MCF7 [4]): >80% | IC50 (MCF7 [5]): 2.5 µM | Activity (Caco-2): inactive | Activity (MCF7 [6]): inactive | Kd [1]: 0.03 µM | Kd [2]: 2.09 µM | Selectivity ratio (unidentified): 33.3
